{"source": "paper PMC11480361", "about": "“Design of a Cereblon construct for crystallographic and biophysical studies of protein degraders” (Nature Communications, 2024)", "key": {"CRBN^midi and BRD4^BD2 [1]": {"biological_target": "T1, CRBN^midi and BRD4^BD2 (Homo sapiens, UniProt O60885+Q96SW2, C287N/C343E/C78I/DEL188-248/G302D/I92V/INS187GSG/K116N/L342R/L423I/Q134E/R283W/T359I/V293S)", "T1 construct": "amino acids 41-187 followed by a Gly-Ser-Gly linker and amino acids 249-426; Human Brd4^BD2 (residues 333–460, UniProt ID: O60885); His6 (N); made in house; host or cells: E. coli BL21(DE3)", "T1 sequence (Q96SW2 with tags, fused parts or gaps with the stated changes limits assumed, other chains not shown)": "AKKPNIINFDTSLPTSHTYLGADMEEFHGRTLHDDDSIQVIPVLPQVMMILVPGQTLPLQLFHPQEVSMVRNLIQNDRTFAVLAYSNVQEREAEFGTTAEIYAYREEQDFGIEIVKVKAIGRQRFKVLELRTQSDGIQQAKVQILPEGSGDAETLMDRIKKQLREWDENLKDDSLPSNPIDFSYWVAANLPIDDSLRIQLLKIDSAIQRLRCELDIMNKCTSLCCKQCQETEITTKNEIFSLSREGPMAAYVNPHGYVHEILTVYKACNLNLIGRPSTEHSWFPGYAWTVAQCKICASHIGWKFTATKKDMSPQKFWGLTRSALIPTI", "test": "TR-FRET ternary complex formation with BRD4^BD2", "type": "binding", "details": "for TR-FRET signal: CRBNmidi, source data Fig. 3h, replicates", "method": "(§1) The mixture was incubated in the dark with gentle rocking for 1 hour before readout using a PHERAstar microplate reader (BMG Labtech) with Pherastar software (version 5.70 R5). All incubations were conducted at 20 °C. Data were fitted by non-linear regression (curve fit) using Prism software (GraphPad version 10). Experiments were conducted in triplicate and were the average of three repeats."}, "CRBN^TBD and BRD4^BD2": {"test_system": "T2, CRBN^TBD and BRD4^BD2", "T2 construct": "Human Brd4^BD2 (residues 333–460, UniProt ID: O60885); GST (cleaved yes); His6; His6 (N); made in house; host or cells: E. coli BL21(DE3)", "test": "TR-FRET ternary complex formation with BRD4^BD2", "type": "binding, human", "details": "for TR-FRET signal: CRBNTBD, source data Fig. 3h, replicates", "method": "as §1"}, "[2]": {"test_system": "T3, CRBN^ΔN:DDB1^ΔBPB and BRD4^BD2", "T3 construct": "a construct lacking the unstructured N-terminal region of CRBN (CRBN^ΔN:DDB1); Human Brd4^BD2 (residues 333–460, UniProt ID: O60885); His6 (N); purchased Selvita", "test": "TR-FRET ternary complex formation with BRD4^BD2", "type": "binding, human", "details": "for TR-FRET signal: CRBNΔN-DDB1ΔBPB, source data Fig. 3h, replicates", "method": "as §1"}, "CRBN^midi": {"biological_target": "T4, CRBN^midi (Homo sapiens, UniProt Q96SW2, C287N/C343E/C78I/DEL188-248/G302D/I92V/INS187GSG/K116N/L342R/L423I/Q134E/R283W/T359I/V293S)", "T4 construct": "amino acids 41-187 followed by a Gly-Ser-Gly linker and amino acids 249-426; His6 (N, cleaved yes); made in house; host or cells: E. coli BL21(DE3)", "T4 sequence (Q96SW2 with tags, fused parts or gaps with the stated changes limits assumed)": "as the sequence (Q96SW2 with tags, fused parts or gaps with the stated changes limits assumed, other chains not shown) above", "test": "SPR, CRBN^midi on chip, binary", "type": "binding", "method": "All SPR measurements were carried out on a Biacore^TM 8 K (Cytiva, Biacore Insight Control Software version 5.0.18.22405). CRBN^midi was immobilized via a His6 tag on a NiHC 1500 M chip (XanTec) at 25 °C. The chip surface was prepared for ligand (CRBN^midi) capture as per manufacturer’s instructions, flowing 350 mM EDTA, followed by buffer, then loaded using 5 mM NiCl2 followed by buffer. For binary measurements CRBN^midi was diluted to 350 nM and flowed at 10 µL/min. for 420 s to capture a final bound response of 240 RUs. For […] measurements, 10 nM of CRBN^midi was flowed at 10 µl/min. for 420 s to capture a final bound response of approximately 10,000 RUs. The buffer for immobilization and all kinetic measurements was 50 mM Tris pH 8.0, 150 mM NaCl, 0.25 mM TCEP, 0.005% (v/v) Tween-20 and 2% (v/v) DMSO.\n(§2) For ternary experiments the analyte was supplemented with 50 µM BRD4^BD2. Each concentration point was flowed independently at 50 µL/min. with an association time of 150 s followed by 500 s dissociation. All measurements were carried out at 20 °C.\n(§3) Data was analyzed using Biacore^TM Insight Evaluation Software (version 4.0.8.20368). Raw sensograms were solvent corrected, followed by reference and blank subtraction. […] Alpha, a parameter indicative of cooperativity, was calculated by dividing binary KD by ternary KD."}, "CRBN^midi and BRD4^BD2 [3]": {"biological_target": "T1, CRBN^midi and BRD4^BD2", "test": "SPR, CRBN^midi on chip, ternary (analyte with 50 µM BRD4^BD2)", "type": "binding", "method": "All SPR measurements were carried out on a Biacore^TM 8 K (Cytiva, Biacore Insight Control Software version 5.0.18.22405). […] The buffer for immobilization and all kinetic measurements was 50 mM Tris pH 8.0, 150 mM NaCl, 0.25 mM TCEP, 0.005% (v/v) Tween-20 and 2% (v/v) DMSO.\nas §2, §3"}, "[4]": {"details": "CRBN^midi immobilization level 9581"}, "[5]": {"details": "CRBN^midi immobilization level 240"}}, "note": "“And” between values parts separate entries of the source, which are not always exact repeats. Equal values may be shown once.", "data": [{"compound": "Cc1nnc2n1-c1ccc(-c3cnn(CCCCCCCN4CCC(c5cccc6c5CN(C5CCC(=O)NC5=O)C6=O)CC4)c3)cc1C(c1ccc(Cl)cc1)=NC21CC1", "note": "(centres unmarked) [CFT-1297]", "values": [{"measurement": "maximal concentration of bell-shaped TR-FRET profile", "setting": "CRBN^midi and BRD4^BD2 [1]; CRBN^midi, BRD4^BD2", "value": 21, "unit": "nM"}, {"measurement": "TR-FRET signal", "setting": "CRBN^midi and BRD4^BD2 [1]; CFT-1297 6.3657e-10 M", "value": "120 and 116 and 105 and 148 and 130 and 152 and 174 and 158 and 167"}, {"measurement": "TR-FRET signal", "setting": "CRBN^midi and BRD4^BD2 [1]; CFT-1297 2.01156e-9 M", "value": "347 and 363 (2×) and 394 and 412 and 387 and 420 (2×) and 430"}, {"measurement": "TR-FRET signal", "setting": "CRBN^midi and BRD4^BD2 [1]; CFT-1297 6.35653e-9 M", "value": "931 and 924 and 913 and 954 and 948 and 945 and 981 and 982 and 990"}, {"measurement": "TR-FRET signal", "setting": "CRBN^midi and BRD4^BD2 [1]; CFT-1297 2.00866e-8 M", "value": "1502 and 1521 and 1538 and 1551 and 1571 and 1561 and 1573 and 1559 and 1582"}, {"measurement": "TR-FRET signal", "setting": "CRBN^midi and BRD4^BD2 [1]; CFT-1297 6.34738e-8 M", "value": "850 and 872 and 886 and 873 and 864 and 854 and 799 and 811 and 813"}, {"measurement": "TR-FRET signal", "setting": "CRBN^midi and BRD4^BD2 [1]; CFT-1297 2.00577e-7 M", "value": "376 and 352 and 403 and 396 and 394 (2×) and 313 and 326 and 341"}, {"measurement": "TR-FRET signal", "setting": "CRBN^midi and BRD4^BD2 [1]; CFT-1297 6.33824e-7 M", "value": "185 and 204 and 173 and 213 and 220 and 205 and 126 and 137 and 130"}, {"measurement": "TR-FRET signal", "setting": "CRBN^midi and BRD4^BD2 [1]; CFT-1297 2.00288e-6 M", "value": "130 and 122 and 145 and 152 and 153 and 147 and 79 and 88 and 84"}, {"measurement": "TR-FRET signal", "setting": "CRBN^midi and BRD4^BD2 [1]; CFT-1297 6.32911e-6 M", "value": "113 and 129 and 102 and 140 and 135 and 145 and 75 and 68 and 78"}, {"measurement": "TR-FRET signal", "setting": "CRBN^TBD and BRD4^BD2; CFT-1297 6.3657e-10 M", "value": "-100 and -96 and -91 and -28 and -32 and -31 and -4 and -7 and 0"}, {"measurement": "TR-FRET signal", "setting": "CRBN^TBD and BRD4^BD2; CFT-1297 2.01156e-9 M", "value": "20 and 18 and 19 and 27 (2×) and 31 and 16 and 0 and 9"}, {"measurement": "TR-FRET signal", "setting": "CRBN^TBD and BRD4^BD2; CFT-1297 6.35653e-9 M", "value": "17 and 14 and 10 and 42 and 47 and 37 and 20 and 23 and 11"}, {"measurement": "TR-FRET signal", "setting": "CRBN^TBD and BRD4^BD2; CFT-1297 2.00866e-8 M", "value": "45 and 44 and 40 and 53 and 52 (2×) and 41 and 50"}, {"measurement": "TR-FRET signal", "setting": "CRBN^TBD and BRD4^BD2; CFT-1297 6.34738e-8 M", "value": "117 and 115 and 122 and 101 and 103 and 107 and 98 and 97 and 102"}, {"measurement": "TR-FRET signal", "setting": "CRBN^TBD and BRD4^BD2; CFT-1297 2.00577e-7 M", "value": "132 and 129 and 128 and 106 and 105 and 108 and 111 and 110"}, {"measurement": "TR-FRET signal", "setting": "CRBN^TBD and BRD4^BD2; CFT-1297 6.33824e-7 M", "value": "109 and 104 and 106 and 98 and 78 and 100"}, {"measurement": "TR-FRET signal", "setting": "CRBN^TBD and BRD4^BD2; CFT-1297 2.00288e-6 M", "value": "112 and 117 and 108 and 92 and 89 and 102 and 91 and 95 and 90"}, {"measurement": "TR-FRET signal", "setting": "CRBN^TBD and BRD4^BD2; CFT-1297 6.32911e-6 M", "value": "131 (2×) and 129 and 112 and 107 and 117 and 110 and 105"}, {"measurement": "ternary complex formation by TR-FRET", "setting": "CRBN^TBD and BRD4^BD2; CRBN^TBD, BRD4^BD2", "value": "no significant ternary complex formation was detected"}, {"measurement": "maximal concentration of bell-shaped TR-FRET profile", "setting": "[2]; CRBN^ΔN:DDB1^ΔBPB, BRD4^BD2", "value": 17, "unit": "nM"}, {"measurement": "TR-FRET signal", "setting": "[2]; CFT-1297 6.3657e-10 M", "value": "5 and -3 and 2 and 6 and 3 and 13 and 20"}, {"measurement": "TR-FRET signal", "setting": "[2]; CFT-1297 2.01156e-9 M", "value": "73 and 94 and 64 and 70 and 78 and 68 and 83 and 85 and 77"}, {"measurement": "TR-FRET signal", "setting": "[2]; CFT-1297 6.35653e-9 M", "value": "339 and 359 and 325 and 342 and 338 and 345 and 352 and 373 and 376"}, {"measurement": "TR-FRET signal", "setting": "[2]; CFT-1297 2.00866e-8 M", "value": "756 and 794 and 735 and 761 and 799 and 801 and 763 and 726 and 762"}, {"measurement": "TR-FRET signal", "setting": "[2]; CFT-1297 6.34738e-8 M", "value": "382 (2×) and 392 and 395 and 387 and 370 and 383 and 372 and 363"}, {"measurement": "TR-FRET signal", "setting": "[2]; CFT-1297 2.00577e-7 M", "value": "131 and 143 and 127 and 140 and 124 and 132 and 129 and 147 and 119"}, {"measurement": "TR-FRET signal", "setting": "[2]; CFT-1297 6.33824e-7 M", "value": "50 and 51 and 69 and 66 and 56 and 71 and 52 and 54 and 38"}, {"measurement": "TR-FRET signal", "setting": "[2]; CFT-1297 2.00288e-6 M", "value": "14 and 4 and 16 and 27 and 34 and 33 and -10 and -1 and -13"}, {"measurement": "TR-FRET signal", "setting": "[2]; CFT-1297 6.32911e-6 M", "value": "11 and 4 and 8 and 21 and 25 and 18 and 13 and 9 and 23"}, {"measurement": "Experimental Rmax / Theoretical Rmax", "setting": "CRBN^midi", "value": 93, "unit": "%"}, {"measurement": "Kd", "setting": "CRBN^midi", "value": 2.1, "unit": "µM"}, {"measurement": "Experimental Rmax", "setting": "CRBN^midi; [4]", "value": 196}, {"measurement": "Theoretical Rmax", "setting": "CRBN^midi; [4]", "value": 211}, {"measurement": "Experimental Rmax / Theoretical Rmax", "setting": "CRBN^midi and BRD4^BD2 [3]", "value": 55, "unit": "%"}, {"measurement": "cooperativity α (binary KD / ternary KD)", "setting": "CRBN^midi and BRD4^BD2 [3]", "value": 3}, {"measurement": "Experimental Rmax", "setting": "CRBN^midi and BRD4^BD2 [3]; [5]", "value": 56}, {"measurement": "Theoretical Rmax", "setting": "CRBN^midi and BRD4^BD2 [3]; [5]", "value": 101}]}]}
